Laboratory results reported in US4419508A, “20-Dihydro-20-deoxy-23-demycinosyltylosin and process for its production” (Eli Lilly and Company, priority 1981, dated 1983).
Converted amounts (≈) assume the structure as drawn. “Also recorded” adds a separate entry of the source. Read-outs that look alike come from different tables or passages of the source.

Key:
[1] = tested on: Propionibacterium acnes 79; assay: MIC against anaerobic bacteria, standard agar-dilution assay; assay type: cell-based; conditions: Cutibacterium acnes, end point after 24 hours
[2] = tested on: pathogenic bacteria, especially gram-positive bacteria and Mycoplasma species; assay: Antibacterial activity (in words); assay type: cell-based; conditions: qualitative statement
Source text: (§1) Table 3 summarizes the minimal inhibitory concentrations (MIC), as measured by standard agar-dilution assays, at which DH-DO-DMT and DH-DO-OMT (as free bases) inhibit certain bacteria.

[3] = tested on: Haemophilus influenzae C.L.; assay type: cell-based
[4] = tested on: Clostridium difficile 2994; assay: MIC against anaerobic bacteria, standard agar-dilution assay; assay type: cell-based; conditions: Clostridioides difficile, end point after 24 hours
[5] = tested on: Escherichia coli N10; assay type: cell-based; conditions: free base, agar dilution
Source text: as §1

[6] = tested on: Klebsiella pneumoniae KAE; assay type: cell-based; conditions: free base, agar dilution
Source text: as §1

[7] = tested on: Escherichia coli EC14; assay type: cell-based; conditions: free base, agar dilution
Source text: as §1

[8] = tested on: Shigella sonnei N9; assay type: cell-based; conditions: free base, agar dilution
Source text: as §1

[9] = tested on: Clostridium perfringens 81; assay: microbe, parasite or virus in culture; assay type: cell-based; conditions: Clostridium perfringens, 81, 24 h
[10] = tested on: Peptostreptococcus intermedius 1264; assay: MIC against anaerobic bacteria, standard agar-dilution assay; assay type: cell-based; conditions: end point after 24 hours
[11] = tested on: Fusobacterium necrophorum 6054A; assay: as above; assay type: cell-based; conditions: end point after 24 hours
[12] = tested on: Bacteroides melaninogenicus 1856/28; assay: as above; assay type: cell-based; conditions: end point after 24 hours
[13] = tested on: Staphylococcus epidermidis EPI2; assay type: cell-based; conditions: free base, agar dilution
[14] = tested on: Haemophilus influenzae 76; assay type: cell-based
[15] = tested on: Bacteroides fragilis 111; assay: MIC against anaerobic bacteria, standard agar-dilution assay; assay type: cell-based; conditions: end point after 24 hours
[16] = tested on: Streptococcus sp. group D 9960; assay type: cell-based
[17] = tested on: M. gallisepticum; assay: MIC against Mycoplasma species; assay type: cell-based; conditions: Mycoplasmoides gallisepticum
Source text: (§2) In addition, DH-DO-OMT inhibits Mycoplasma species.

[18] = tested on: M. synoviae; assay: MIC against Mycoplasma species; assay type: cell-based; conditions: Mycoplasmopsis synoviae
Source text: as §2

[19] = Solubility; assay type: physicochemical; conditions: for solubility in polar organic solvents: free bases, acetone, methanol, ethanol, chloroform, dimethylformamide, dimethyl sulfoxide; for solubility in water: free bases (rows) or acid addition salts (sets)
[20] = tested on: Staphylococcus epidermidis EPI1; assay type: cell-based
[21] = tested on: Klebsiella pneumoniae X26; assay type: cell-based
[22] = tested on: Streptococcus pneumoniae Park I; assay: In vivo activity against experimental infections in mice; conditions: po
[23] = tested on: Bacteroides vulgatis 1211; assay: MIC against anaerobic bacteria, standard agar-dilution assay; assay type: cell-based; conditions: end point after 24 hours
[24] = tested on: Streptococcus pneumoniae Park 1; assay type: cell-based
[25] = tested on: Eubacterium aerofaciens 1235; assay: MIC against anaerobic bacteria, standard agar-dilution assay; assay type: cell-based; conditions: Collinsella aerofaciens, end point after 24 hours
[26] = tested on: Staphylococcus aureus X400; assay type: cell-based
[27] = tested on: Chlamydia trachomatis; assay: MIC, Chlamydia trachomatis grown in cell culture; assay type: cell-based
Source text: as §2

[28] = tested on: Bacteroides melaninogenicus 2736; assay: MIC against anaerobic bacteria, standard agar-dilution assay; assay type: cell-based; conditions: end point after 24 hours
[29] = tested on: Peptococcus asaccharolyticus 1302; assay: as above; assay type: cell-based; conditions: Peptoniphilus asaccharolyticus, end point after 24 hours
[30] = tested on: Staphylococcus aureus NRRL B313; assay type: cell-based; conditions: NRRLB313
[31] = tested on: Bacteroides fragilis 1936B; assay: MIC against anaerobic bacteria, standard agar-dilution assay; assay type: cell-based; conditions: end point after 24 hours
[32] = tested on: Escherichia coli TEM; assay type: cell-based
[33] = tested on: Fusobacterium symbiosum 1470; assay: MIC against anaerobic bacteria, standard agar-dilution assay; assay type: cell-based; conditions: end point after 24 hours
[34] = tested on: Staphylococcus aureus 3055; assay: In vivo activity against experimental infections in mice; conditions: two doses
[35] = tested on: Bacteroides corrodens 1874; assay: MIC against anaerobic bacteria, standard agar-dilution assay; assay type: cell-based; conditions: Eikenella corrodens, end point after 24 hours
[36] = tested on: Bacteroides fragilis 1877; assay: as above; assay type: cell-based; conditions: end point after 24 hours
[37] = tested on: Staphylococcus aureus V41; assay type: cell-based
[38] = tested on: Clostridium septicum 1128; assay: MIC against anaerobic bacteria, standard agar-dilution assay; assay type: cell-based; conditions: end point after 24 hours
Description: (§3) Table 4 summarizes the MIC's at which DH-DO-OMT inhibits these bacteria. The MIC's were determined using a standard agar-dilution assay and reading the end point after 24 hours.

[39] = tested on: Bacteroides thetaiotaomicron 1438; assay: as above; assay type: cell-based; conditions: Bacteroides thetaiotaomicron, 1438, 24 h
Description: as §3

[40] = tested on: Peptococcus prevoti 1281; assay: as above; assay type: cell-based; conditions: end point after 24 hours
Description: as §3

[41] = tested on: Streptococcus pyogenes C203; assay type: cell-based
[42] = tested on: Streptococcus faecium ATCC 9790; assay type: cell-based; conditions: Enterococcus faecium, ATCC9790
[43] = tested on: Peptostreptococcus anaerobius 1428; assay: MIC against anaerobic bacteria, standard agar-dilution assay; assay type: cell-based; conditions: end point after 24 hours
[44] = tested on: Streptococcus pyogenes C203; assay: In vivo activity against experimental infections in mice; conditions: free base, oral, two doses, bacterial challenge 64 LD50

Which results are given for `CCC1CC(C)C(=O)C=CC(C)=CC(CO)C(CC)OC(=O)CC(O)C(C)C1OC1OC(C)C(O)C(N(C)C)C1O` (stereo not drawn) [DH-DO-OMT, 20-Dihydro-20-deoxy-5-O-mycaminosyltylonolide]?
MIC [1]: 2 mg/L (≈ 3.43 µM); antibacterial activity [2]: inhibit the growth of pathogenic bacteria, especially gram-positive bacteria and Mycoplasma species; also recorded: active against gram-positive microorganisms and Mycoplasma species; MIC ([3]; free base, agar dilution, Haemophilus influenzae C.L., read-out: MIC): 16 mg/L (≈ 27.4 µM); MIC [4]: 2 mg/L (≈ 3.43 µM); MIC [5]: > 128 mg/L; MIC [6]: > 128 mg/L; MIC [7]: > 128 mg/L; MIC [8]: > 128 mg/L; MIC [9]: 2 mg/L (≈ 3.43 µM); MIC [10]: > 8 mg/L; MIC [11]: 8 mg/L (≈ 13.7 µM); MIC [12]: > 8 mg/L; MIC [13]: 8 mg/L (≈ 13.7 µM); MIC ([14]; free base, agar dilution, Haemophilus influenzae 76, read-out: MIC): 16 mg/L (≈ 27.4 µM); MIC [15]: > 8 mg/L; MIC ([16]; free base, agar dilution, Streptococcus sp. group D 9960, read-out: MIC): 16 mg/L (≈ 27.4 µM); MIC [17]: 12.5 mg/L (≈ 21.4 µM); MIC [18]: 12.5 mg/L (≈ 21.4 µM); solubility in polar organic solvents [19]: soluble in water and in most polar organic solvents; solubility in water [19]: soluble in water; MIC ([20]; read-out: MIC): 8 mg/L (≈ 13.7 µM); MIC ([21]; free base, agar dilution, Klebsiella pneumoniae X26, read-out: MIC): 4 mg/L (≈ 6.85 µM); ED50 [22]: 224 mg/kg; MIC [23]: > 8 mg/L; MIC ([24]; PARK1, read-out: MIC): 8 mg/L (≈ 13.7 µM); MIC [25]: 2 mg/L (≈ 3.43 µM); MIC ([26]; free base, agar dilution, Staphylococcus aureus X400, read-out: MIC): 8 mg/L (≈ 13.7 µM); MIC [27]: 0.5 mg/L (≈ 0.857 µM); MIC [28]: > 8 mg/L; MIC [29]: > 8 mg/L; MIC ([30]; free base, agar dilution, Staphylococcus aureus NRRL B313, read-out: MIC): 4 mg/L (≈ 6.85 µM); MIC [31]: > 8 mg/L; MIC ([32]; free base, agar dilution, Escherichia coli TEM, read-out: MIC): 64 mg/L (≈ 110 µM); MIC [33]: > 8 mg/L; ED50 ([34]; Staphylococcus aureus, 3055, free base, oral, bacterial challenge 100 LD50): 44 mg/kg; ED50 ([34]; Staphylococcus aureus, 3055, sc, free base, subcutaneous, bacterial challenge 221 LD50): 37.3 mg/kg; MIC [35]: > 8 mg/L; MIC [36]: > 8 mg/L; MIC ([37]; free base, agar dilution, Staphylococcus aureus V41, read-out: MIC): 4 mg/L (≈ 6.85 µM); MIC [38]: 2 mg/L (≈ 3.43 µM); MIC [39]: > 8 mg/L; MIC [40]: > 8 mg/L; MIC ([41]; free base, agar dilution, Streptococcus pyogenes C203, read-out: MIC): 8 mg/L (≈ 13.7 µM); MIC ([42]; free base, agar dilution, Streptococcus faecium ATCC 9790, read-out: MIC): 16 mg/L (≈ 27.4 µM); MIC [43]: > 8 mg/L; ED50 [44]: 75.3 mg/kg

Which results are given for `CCC1CC(C)C(=O)C=CC(C)=CC(CO)C(CC)OC(=O)CC(O)C(C)C1OC1OC(C)C(OC2CC(C)(O)C(O)C(C)O2)C(N(C)C)C1O` (stereo not drawn) [DH-DO-DMT, 20-dihydro-20-deoxy-23-demycinosyltylosin]?
antibacterial activity [2]: inhibit the growth of pathogenic bacteria, especially gram-positive bacteria and Mycoplasma species; also recorded: some antibacterial activity; also recorded: active against gram-positive microorganisms and Mycoplasma species; MIC ([3]; Haemophilus influenzae): > 128 mg/L; MIC [5]: > 128 mg/L; MIC [6]: > 128 mg/L; MIC [7]: > 128 mg/L; MIC [8]: > 128 mg/L; MIC [13]: 64 mg/L (≈ 87.9 µM); MIC ([14]; Haemophilus influenzae, 76): > 128 mg/L; MIC ([16]; Streptococcus): > 128 mg/L; solubility in polar organic solvents [19]: soluble in water and in most polar organic solvents; solubility in water [19]: soluble in water; MIC [20]: 128 mg/L (≈ 176 µM); MIC ([21]; Klebsiella pneumoniae, X26): > 128 mg/L; MIC ([24]; PARK1): > 128 mg/L; MIC ([26]; Staphylococcus aureus, X400): > 128 mg/L; MIC ([30]; Staphylococcus aureus): 128 mg/L (≈ 176 µM); MIC ([32]; Escherichia coli): > 128 mg/L; MIC ([37]; Staphylococcus aureus, V41): 128 mg/L (≈ 176 µM); MIC ([41]; Streptococcus pyogenes, C203): > 128 mg/L; MIC [42]: > 128 mg/L
